In one assay the target is T1, human cathepsin L (Homo sapiens, UniProt P07711).
T1 construct: made in house; host or cells: mouse myeloma Sp2/0 cells stably transformed with pTBN-HCLneo (Sp-HCL26); purified from serum-free culture supernatant on CM-Sephadex C-50 and Mono S
Kind of assay: Determination of human cathepsin L inhibitory activity (recombinant enzyme, Z-Phe-Arg-NMec substrate). The format is biochemical. As to conditions: pH 5.5, 30° C., 10 minutes. The method, then: This fraction was applied to a Mono S column (HR5/5) of an FPLC system (produced by Pharmacia), followed by column washing and human cathepsin L elution in the same manner as above.
Experimental Example 8: Determination of human cathepsin L inhibitory activity
The recombinant human cathepsin L purified in Experimental Example 7 was diluted with a diluent [0.1% Brij 35 (produced by Sigma Chemical Company)] to a concentration of 1 μg/ml. To 1 μl of this enzyme dilution, 46 μl of the diluent, 2 μl of 0.1M DTT and 25 μl of an activator/buffer (340 mM sodium acetate, 60 mM acetic acid, 4 mM disodium EDTA, pH 5.5) were added. To this mixture were added a 1 μl sample, diluted to 10^-2 M with dimethyl sulfoxide (DMSO), and 25 μl of 20 μM Z-Phe-Arg-NMec (enzyme substrate solution), followed by incubation at 30° C. for 10 minutes, after which 100 μl of a reaction stopper (100 mM sodium monochloroacetate, 30 mM sodium acetate, 70 mM acetic acid, pH 4.3) was added. This reaction was carried out on a 96-well fluoroplate (produced by Labo Systems).
After the reaction was stopped, the fluorescence intensity of free aminomethylcoumarin was determined at a wavelength of 450 nm (excitation wavelength=365 nm), using a fluorometer FCA (produced by Baxter). For a control, 1 μl of sample-free DMSO was added instead; the fluorometric value obtained from this control reaction was taken as 100% activity.

For assay [1], the system named is fetal rat forearm bones (radius and ulna), bone resorption. Kind of assay: Bone resorption suppressing action (^45 Ca release from cultured fetal rat forearm bones, method of Raisz). Particulars: 48 h, cultured two days, control = no test compound, mean of five bone fragments, read-out: Bone Resorption Inhibitory Activity [^45 Ca Release Rate (Percent to Control)]; for activity at 10 µM: Concentration of Compound 10 μM; for activity at 10 µg/mL: Concentration of Compound 10 μg/ml. It is filed as cell-based, Sprague-Dawley rat. The source says: Specifically, one Sprague-Dawley rat, at 18 days of gestation, was given 50 μCi of ^45 Ca (calcium isotope, in CaCl2 solution) by subcutaneous injection. On the following day, the animal was laparotomized and fetal rats aseptically removed. Both forearm bones (radius and ulna) were cut out from the body of each fetus under an anatomical microscope, and connective tissue and cartilages were removed to the maximum possible extent, to prepare bone culture samples. Each bone fragment was pre-cultured at 37° C. for 24 hours in 0.6 ml of BGJb medium (Fitton-Jackson modification, GIBCO Laboratories, United States) prepared by adding bovine serum albumin (final concentration 2 mg/ml), after which it was transferred to the same medium as above but containing each compound (final concentration 10 μg/ml or 10 μM) and cultured for two more days. ^45 Ca radioactivity in the medium and ^45 Ca radioactivity in the bone were then measured, and the percent ratio of ^45 Ca released from the bone to the medium was calculated using the following equation: [formula]
For control, bone fractions from fetuses of the same litter were cultured for two days in the absence of the test compound. The mean q standard deviation for the values from five bone fragments in each group were calculated, and their percent ratios to the control were calculated.

The results in this text go back to US5955491A, “Method for treating osteoporosis” (Takeda Chemical Industries, Ltd., priority 1993, dated 1999).

Peptide text beside a SMILES is read from it. * marks the point of attachment. MeOSuc = COC(=O)CCC(=O)*; Cbz = O=C(OCc1ccccc1)*; Boc = CC(C)(C)OC(=O)*; Bz = O=C(c1ccccc1)*

T1 sequence (P07711 114-333): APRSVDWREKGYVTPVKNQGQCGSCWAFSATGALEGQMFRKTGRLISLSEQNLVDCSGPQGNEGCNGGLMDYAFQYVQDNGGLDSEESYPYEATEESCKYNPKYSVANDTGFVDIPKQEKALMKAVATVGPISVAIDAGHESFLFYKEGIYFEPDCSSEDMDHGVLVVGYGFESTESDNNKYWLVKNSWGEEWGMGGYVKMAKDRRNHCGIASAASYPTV

Regarding `CC[C@H](C)[C@H](NC(=O)OCc1ccccc1)C(=O)N[C@H](C=O)Cc1c[nH]c2ccccc12` [Example 107], on human cathepsin L, the IC50 was 0.011 µM. For the compound `CC(C)[C@H](NC(=O)c1ccccc1)C(=O)N[C@H](C=O)Cc1c[nH]c2ccccc12` [Example 134] (Bz-Val-Trp-aldehyde), the activity at 10 µM in assay [1] turned out to be 66%. Consider `CC[C@H](C)[C@H](NC(=O)[C@@H](NS(=O)(=O)c1cccc2ccccc12)[C@@H](C)CC)C(=O)NC(C=O)Cc1cccc2ccccc12` (stereo partly drawn) [Example 118, N-(1naphthylsulfonyl)-(L)-isoleucyl-(L)-isoleucyl-(DL)-(1-naphthyl)alaninal], for which the IC50 at human cathepsin L was determined as 0.22 µM.

On to `Cc1ccc(CC(Cc2ccccc2)C(=O)N[C@H](CO)Cc2c[nH]c3ccccc23)cc1` (stereo partly shown) [Example 84], for which the activity at 10 µM in assay [1] is 74%. Same read-out and setting: to `CC[C@H](C)[C@H](NS(=O)(=O)c1cccc2ccccc12)C(=O)N[C@@H](C)C=O` [Example 153, N-(1-naphthylsulfonyl)-(L)-isoleucylalanal] belongs 74%. Consider `CC[C@H](C)[C@H](NS(=O)(=O)c1cccc2ccccc12)C(=O)N[C@H](CO)Cc1c[nH]c2ccccc12` [Example 3, N-(1-naphthylsulfonyl)-(L)-isoleucyl-(L)-tryptophanol], for which the activity at 10 µg/mL in assay [1] stood at 49%. Take `CCCC(CCC)C(=O)N[C@H](C(=O)N[C@H](C=O)Cc1c[nH]c2ccccc12)C(C)C` [Example 135, N-(2-propylpentanoyl)-(L)-valyl-(L)-tryptophanal]: the IC50 on human cathepsin L stood at 0.001 µM. The activity at 10 µM in assay [1] amounted to 45%. As for `CC[C@H](C)[C@H](NC(=O)OC(C)(C)C)C(=O)N[C@H](C(=O)N[C@H](C=O)Cc1c[nH]c2ccccc12)[C@@H](C)CC` [Example 109] (Boc-Ile-Ile-Trp-aldehyde), the IC50 at human cathepsin L turned out to be 0.01 µM. For the same compound, the activity at 10 µg/mL in assay [1] is 38%.

For the compound `CC(C)[C@H](NC(=O)OCc1ccccc1)C(=O)N[C@H](C=O)Cc1c[nH]c2ccccc12` [Example 132] (Cbz-Val-Trp-aldehyde), on human cathepsin L, the IC50 worked out at 0.00099 µM. Also, in assay [1], the activity at 10 µM turned out to be 74%.

In the case of `CC[C@H](C)[C@H](NC(=O)OCCC12CC3CC(CC(C3)C1)C2)C(=O)N[C@H](C(=O)N[C@H](C=O)Cc1c[nH]c2ccccc12)[C@@H](C)CC` [Example 112], the IC50 on human cathepsin L was 0.38 µM. In addition, the activity at 10 µg/mL in assay [1] was determined as 43%. With `O=C[C@H](Cc1c[nH]c2ccccc12)NC(=O)C(c1ccccc1)c1ccccc1` [Example 192], at human cathepsin L, the IC50 was 0.0042 µM.

For `CC[C@H](C)[C@H](NC(=O)c1cc(=O)c2ccccc2o1)C(=O)N[C@H](C=O)Cc1c[nH]c2ccccc12` [Example 193], the IC50 on human cathepsin L is 0.0039 µM. Still for that read-out and setting: to `CC[C@H](C)[C@H](NC(=O)NCCC1CCCCC1)C(=O)N[C@H](C=O)Cc1c[nH]c2ccccc12` [Example 115, N-[(2-cyclohexylethyl)carbamoyl]-(L)-isoleucyl-(L)-tryptophanal] belongs 0.048 µM. Turning to `CC[C@H](C)[C@H](NC(=O)[C@@H](NS(=O)(=O)c1cccc2ccccc12)[C@@H](C)CC)C(=O)N[C@H](C=O)Cc1c[nH]c2ccccc12` [Example 110, N-(1-naphthylsulfonyl)-(L)-isoleucyl-(L)-isoleucyl-(L)-tryptophanal], the IC50 at human cathepsin L came out at 0.016 µM. For the same compound, the activity at 10 µg/mL in assay [1] turned out to be 46%.

For `CCOP(=O)(Cc1ccc(NC(=O)C(Cc2ccccc2)C(=O)N[C@H](C=O)Cc2c[nH]c3ccccc23)cc1)OCC` (stereo partly shown) [Example 188], the IC50 at human cathepsin L worked out at 0.037 µM. In the case of `CC(C)[C@H](NC(=O)c1ccccc1)C(=O)N[C@H](CO)Cc1c[nH]c2ccccc12` [Example 38], the activity at 10 µM in assay [1] is 76%.

On to `O=C[C@H](Cc1c[nH]c2ccccc12)NC(=O)[C@H](Cc1ccccc1)NC(=O)c1ccccc1` [Example 128] (Bz-Phe-Trp-aldehyde), for which, on human cathepsin L, the IC50 was found to be 0.019 µM. Further, the activity at 10 µM in assay [1] was found to be 73%. The matching figures for `O=C[C@H](Cc1c[nH]c2ccccc12)NC(=O)C(Cc1ccccc1)Cc1ccccc1` [Example 122, N-dibenzylacetyl-(L)-tryptophanal]: 0.032 µM and 73%. For `CCCC(CCC)C(=O)N[C@@H](CC(C)C)C(=O)N[C@H](C=O)Cc1c[nH]c2ccccc12` [Example 144], in that order: 0.0024 µM and 60%. For the compound `CC(C)C[C@H](NC(=O)c1ccccc1)C(=O)N[C@H](C=O)Cc1c[nH]c2ccccc12` [Example 143], at human cathepsin L, the IC50 amounted to 0.0017 µM. The same measure, in the same setting: to `CC(C)C[C@H](NS(=O)(=O)c1cccc2ccccc12)C(=O)N[C@@H](Cc1c[nH]c2ccccc12)C(=O)NCC=O` [Example 175] belongs 0.019 µM. For the compound `CCCC(Sc1ccccc1)C(=O)N[C@H](C=O)Cc1c[nH]c2ccccc12` (stereo partly shown) [Example 129], the IC50 at human cathepsin L stood at 0.085 µM.

Turning to `CC(C)[C@@H](C=O)NC(=O)C(Cc1ccccc1)Cc1ccccc1` [Example 168], the IC50 on human cathepsin L was found to be 0.026 µM. On to `O=C[C@H](Cc1c[nH]c2ccccc12)NC(=O)C(Cc1ccccc1)C(=O)N(Cc1ccccc1)Cc1ccccc1` (stereo partly shown) [Example 190], for which the IC50 on human cathepsin L worked out at 0.055 µM. Regarding `CC[C@H](C)[C@H](NS(=O)(=O)c1cccc2ccccc12)C(=O)N[C@H](C=O)Cc1ccc(O)cc1` [Example 158], in assay [1], the activity at 10 µM was found to be 65%. On the same count and under the same terms, to `O=C(N[C@H](CO)Cc1c[nH]c2ccccc12)C(Cc1ccccc1)Cc1ccccc1` [Example 26, N-dibenzylacetyl-(L)-tryptophanol] belongs 79%. `CC[C@H](C)[C@H](NC(=O)OCc1ccccc1)C(=O)N[C@H](C=O)Cc1ccc(OC(C)C)cc1` [Example 157]: the activity at 10 µM in assay [1] came to 72%. Consider `O=C[C@H](Cc1c[nH]c2ccccc12)NC(=O)C(Cc1ccccc1)C(=O)NCc1ccccc1` (stereo partly shown) [Example 191], for which the IC50 on human cathepsin L turned out to be 0.0047 µM. In the case of `CC[C@H](C)[C@H](NC(=O)OCc1ccccc1)C(=O)N[C@H](C(=O)N[C@H](C=O)Cc1c[nH]c2ccccc12)[C@@H](C)CC` [Example 108, N-(benzyloxycarhonyl)-(L)-isoleucyl-(L)-isoleucyl-(L)-tryptophanal] (Cbz-Ile-Ile-Trp-aldehyde), at human cathepsin L, the IC50 is 0.0054 µM. In addition, the activity at 10 µg/mL in assay [1] came out at 42%. For `CC[C@H](C)[C@H](NC(=O)CCC(=O)OC)C(=O)N[C@H](C(=O)N[C@H](C=O)Cc1c[nH]c2ccccc12)[C@@H](C)CC` [Example 111] (MeOSuc-Ile-Ile-Trp-aldehyde), in that order: 0.014 µM and 32%. With `CC[C@H](C)[C@H](NS(=O)(=O)c1cccc2ccccc12)C(=O)N[C@H](C=O)Cc1ccccc1` [Example 154, N-(1-naphthylsulfonyl)-(L)-isoleucyl-(L)-phenylalaninal], on human cathepsin L, the IC50 was found to be 0.00095 µM. For `C[C@H](NS(=O)(=O)c1cccc2ccccc12)C(=O)N[C@H](C=O)Cc1c[nH]c2ccccc12` [Example 124], the activity at 10 µM in assay [1] stood at 79%.

For `CC[C@H](C)[C@H](NS(=O)(=O)c1cccc2ccccc12)C(=O)N[C@H](C=O)Cc1c[nH]c2ccccc12` [Example 103, N-(1-naphthylsulfonyl)-(L)-isoleucyl-(L)-tryptophanal], in assay [1], the activity at 10 µg/mL came out at 49%.

In the case of `CC[C@H](C)[C@H](NC(=O)OCc1ccccc1)C(=O)N[C@H](CO)Cc1cn(C(C)(C)C)c2ccccc12` [Example 59], in assay [1], the activity at 10 µM was 67%. With `CC[C@@H](C=O)NC(=O)C(Cc1ccccc1)Cc1ccccc1` [Example 167], on human cathepsin L, the IC50 was determined as 0.043 µM. As to `CC[C@H](C)[C@H](NC(=O)OC(C)(C)C)C(=O)N[C@H](C=O)Cc1cn(C)c2ccccc12` [Example 150], the IC50 at human cathepsin L amounted to 0.0061 µM.
